Laboratory results as given in patent publication US11324748B2, “Vasodilators for treatment of heart failure” (NORTHEAST OHIO MEDICAL UNIVERSITY, priority 2017, dated 2022).
Structures can show the parent of a compound that is named as a salt.

Experiments:
[1] = system: heart failure induced by TAC (transaortic constriction); details: TAC mice, treatment started at week 5; FIG. 7
[2] = system: mice with heart failure (HFrEF); assay: Treadmill exercise time and whole body oxygen consumption in mice with heart failure, FIG. 9
[3] = system: heart failure (HF) induced by transaortic constriction (TAC); assay: Transaortic constriction (TAC) heart failure in mice, echocardiography; chromonar or vehicle from end of week 13; assay type: in vivo
Text: Ejection fraction is the percentage of blood in the left ventricular chamber that the heart ejects per beat. Under normal conditions, the heart will eject 60-70% of left ventricular volume with each contraction, but the failing heart ejects considerably less. After the control measurements to establish baseline % EF, mice underwent surgery to constrict the aortic artery. This procedure, termed transaortic constriction (TAC), causes the heart to pump against a high blood pressure, which causes it to fail. […] At the end of the 13th week, mice were either treated with chromonar (as continuous infusion) or a vehicle (that the chromonar was dissolved in).
Another way of assessing the effectiveness of a therapy in heart failure is to determine how much volume is in the left ventricle before it begins to contract (termed diastolic volume). When contractile function of the heart declines, this volume progressively increases. This volume is important for a number of reasons. First, it is directly related to energy consumption of the heart (as the volume increases energy consumption is increased). Second, if this volume becomes too large, the heart muscle can be overstretched and will contract even more poorly—this is referred to as decompensated heart failure. Third, as the diastolic volume increases pressures and volumes “upstream” in the atrium and pulmonary vessels will also increase. […]

[4] = system: myocardial blood flow in the failing heart; assay: Myocardial blood flow by myocardial contrast echocardiography during norepinephrine cardiac stress test in HF mice; assay type: in vivo; details: FIG. 2 right
Experimental: After the control measurements to establish baseline % EF, mice underwent surgery to constrict the aortic artery. This procedure, termed transaortic constriction (TAC), causes the heart to pump against a high blood pressure, which causes it to fail. […] At the end of the 13th week, mice were either treated with chromonar (as continuous infusion) or a vehicle (that the chromonar was dissolved in).
Myocardial contrast echocardiography (MCE) was used to measure myocardial blood flow in both groups of mice. […] Mice were determined to be in HF when EF<40%). After the development of failure, myocardial blood flow was measured during a cardiac stress test produced by infusion of norepinephrine to increase myocardial metabolic demands. A plot of cardiac work vs MBF was made for the sham mice and for those in HF. To estimate metabolic demands, the index wall stress rate product (WSRP) was developed.

Takotsubo Syndrome = Takotsubo Syndrome produced by TAC, ventricular function, FIG. 11; assay type: in vivo, mice; details: 4 weeks, 2 weeks of treatment

SMILES | cardiac function (EF %) [1] | total exercise time on a treadmill [2] | whole body oxygen consumption ([2]; within 5 minutes of exercise) | cardiac function (ejection fraction, % EF) ([3]; treated at end of 13th week, continuous infusion, FIG. 2 left) | Left Ventricular Diastolic Volume ([3]; treatment at end of week 13, FIG. 3) | relationship between MBF and cardiac work (WSRP) ([4]; failing heart after chromonar) | myocardial blood flow (MBF) ([4]; failing heart, during changes in cardiac work (WSRP)) | ventricular function (EF %) (Takotsubo Syndrome)
CC(C)NCC(O)COc1cccc2ccccc12 (stereo not shown) [propranolol] | continued to decrease | about 45 minutes | lower oxygen consumption than the chromonar treated group | – | – | – | – | –
CCOC(=O)COc1ccc2c(C)c(CCN(CC)CC)c(=O)oc2c1 [chromonar, 14.3-(beta-Diethylaminoethyl)-4-methyl-7-(carbethoxymethoxy)-coumarin hydrochloride] | improved dramatically | ~70 min | – | restored cardiac function—nearly back to the control levels | diastolic volumes decreased | reconnects the relationship between work and flow in the heart | flow is higher | improved ventricular function greatly
